Test results as given in patent publication US20260356810A1, “NOVEL PIPERAZINE-BASED SULFONAMIDES AND THEIR USE AS NEUROPROTECTIVE AND/OR NEURORESTORATIVE AGENTS” (GENECODE, priority 2022, published 2026).

Target: T1, GFRα1-RET (Homo sapiens, UniProt P56159)
T1 construct: expressed in transfected cells; host or cells: MG87 murine fibroblast
Experiment: Luciferase assay: activation of Elk1 signaling in reporter-gene cells expressing GFRα1-RET (MG87 murine fibroblast stably transfected with PathDetect Elk-1, GFRα1, and RET)
Type: cell-based
Conditions: Table 4; MG87 murine fibroblasts with PathDetect Elk-1, GFRα1, RET; 6 concentrations, duplicate, two times independently; agonist/activator activity; read-out: Luciferase Assay EC50
Procedure: The purpose of this experiment was to evaluate the GFRα1-RET activity of the compounds 001-060 according to the invention.
The compounds were tested for their activating activity of Elk1 signaling using the previously developed reporter-gene-based system in cells expressing GFRα1-RET (MG87 murine fibroblast stably transfected with PathDetect Elk-1, GFRα1, and RET) disclosed in Sidorova, Y. A. et al.: “Persephin signaling through GFRα1: The potential for the treatment of Parkinson's disease.” Molecular and Cellular Neuroscience, July 2010, Vol. 44, pp. 223-232. DOI: 10.1016/j.mcn.2010.03.009. For EC50 determination, a dose-response test was performed using 6 concentrations of each tested compound. Dose-response curves were fitted using the sigmoidal dose-response (variable slope) analysis in GraphPad Prism program (Graph Pad Inc) and EC50 of agonist/activator activity was calculated. Dose-response experiments were all performed in duplicate, two times independently.
The compounds were tested for their activating activity of Elk1 signaling using the same materials and methods than for the compounds according to the invention (Example 2 herein, section “Materials and methods”).

T1 sequence (P56159 25-429 limits assumed): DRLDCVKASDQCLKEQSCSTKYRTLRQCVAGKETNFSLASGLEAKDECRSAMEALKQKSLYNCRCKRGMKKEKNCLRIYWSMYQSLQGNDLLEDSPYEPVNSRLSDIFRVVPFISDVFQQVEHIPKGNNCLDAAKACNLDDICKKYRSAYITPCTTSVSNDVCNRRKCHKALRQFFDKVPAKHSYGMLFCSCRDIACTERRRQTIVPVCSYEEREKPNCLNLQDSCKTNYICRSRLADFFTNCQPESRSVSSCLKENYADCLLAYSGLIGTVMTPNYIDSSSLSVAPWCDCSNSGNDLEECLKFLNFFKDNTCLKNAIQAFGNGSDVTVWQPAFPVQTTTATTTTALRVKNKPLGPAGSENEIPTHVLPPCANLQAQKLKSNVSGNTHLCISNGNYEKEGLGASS
T1 sequence (P07949 29-1114 partner): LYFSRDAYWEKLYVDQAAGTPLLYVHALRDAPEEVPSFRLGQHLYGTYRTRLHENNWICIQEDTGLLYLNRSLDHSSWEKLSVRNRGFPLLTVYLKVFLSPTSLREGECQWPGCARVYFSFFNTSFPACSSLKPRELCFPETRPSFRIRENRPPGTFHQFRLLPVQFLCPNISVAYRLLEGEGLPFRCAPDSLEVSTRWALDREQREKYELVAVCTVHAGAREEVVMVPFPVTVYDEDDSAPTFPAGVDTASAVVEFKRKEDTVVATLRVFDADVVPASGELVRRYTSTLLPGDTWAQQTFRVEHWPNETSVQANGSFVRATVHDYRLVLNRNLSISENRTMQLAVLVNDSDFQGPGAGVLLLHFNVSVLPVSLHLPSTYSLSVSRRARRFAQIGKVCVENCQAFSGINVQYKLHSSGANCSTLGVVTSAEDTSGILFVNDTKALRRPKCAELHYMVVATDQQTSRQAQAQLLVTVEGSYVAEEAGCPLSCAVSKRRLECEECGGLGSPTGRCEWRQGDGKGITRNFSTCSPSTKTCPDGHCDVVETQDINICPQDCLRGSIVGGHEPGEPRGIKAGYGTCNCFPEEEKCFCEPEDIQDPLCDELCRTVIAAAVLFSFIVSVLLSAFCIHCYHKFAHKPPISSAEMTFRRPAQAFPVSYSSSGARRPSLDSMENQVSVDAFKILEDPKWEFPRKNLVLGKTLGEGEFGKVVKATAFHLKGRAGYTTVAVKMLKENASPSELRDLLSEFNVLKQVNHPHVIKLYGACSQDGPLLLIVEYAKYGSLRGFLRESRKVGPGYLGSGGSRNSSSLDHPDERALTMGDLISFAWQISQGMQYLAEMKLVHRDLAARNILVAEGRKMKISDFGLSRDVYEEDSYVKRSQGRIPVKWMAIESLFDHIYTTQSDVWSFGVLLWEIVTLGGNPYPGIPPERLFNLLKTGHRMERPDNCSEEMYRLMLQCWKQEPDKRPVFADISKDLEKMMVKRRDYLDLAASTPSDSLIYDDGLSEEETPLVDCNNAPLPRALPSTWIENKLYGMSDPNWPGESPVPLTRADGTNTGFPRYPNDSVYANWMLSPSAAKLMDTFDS

| EC50 [µM] | Compound |
| --- | --- |
| 5 to 10 | COc1ccc(S(=O)(=O)N2CCC(O)(c3ccccc3)CC2)cc1N1CCN(C(=O)c2ccc(F)cc2Cl)CC1 [Compound 011, (2-chloro-4-fluoro-phenyl)-[4-[5-[(4-hydroxy-4-phenyl-1-piperidyl)sulfonyl]-2-methoxy-phenyl]piperazin-1-yl]methanone] |
| 5 to 10 | COc1ccc(S(=O)(=O)N2CCC(O)(Cc3ccccc3)CC2)cc1N1CCN(C(=O)c2ccc(F)cc2Cl)CC1 [Compound 012, [4-[5-[(4-benzyl-4-hydroxy-1-piperidyl)sulfonyl]-2-methoxy-phenyl]piperazin-1-yl]-(2-chloro-4-fluoro-phenyl)methanone] |
| 5 to 10 | COc1ccc(S(=O)(=O)N2CCN(Cc3ccccc3)CC2)cc1N1CCN(C(=O)c2ccc(F)cc2Cl)CC1 [Compound 013, [4-[5-(4-benzylpiperazin-1-yl)sulfonyl-2-methoxy-phenyl]piperazin-1-yl]-(2-chloro-4-fluoro-phenyl)methanone] |
| 5 to 10 | COc1ccc(S(=O)(=O)N(C)CC2CCC2)cc1N1CCN(C(=O)c2ccc(F)cc2Cl)CC1 [Compound 014, 3-[4-(2-chloro-4-fluoro-benzoyl)piperazin-1-yl]-N-(cyclobutylmethyl)-4-methoxy-N-methyl-benzenesulfonamide] |
| 5 to 10 | COc1ccc(S(=O)(=O)N(C)CC2CCCCC2)cc1N1CCN(C(=O)c2ccc(F)cc2Cl)CC1 [Compound 015, 3-[4-(2-chloro-4-fluoro-benzoyl)piperazin-1-yl]-N-(cyclohexylmethyl)-4-methoxy-N-methyl-benzenesulfonamide] |
| 5 to 10 | COc1ccc(S(=O)(=O)N(C)C2CCCC2)cc1N1CCN(C(=O)c2ccc(F)cc2Cl)CC1 [Compound 016, 3-[4-(2-chloro-4-fluoro-benzoyl)piperazin-1-yl]-N-cyclopentyl-4-methoxy-N-methyl-benzenesulfonamide] |
| 1 to 5 | COc1ccc(S(=O)(=O)N(C)C2CCCCC2)cc1N1CCN(C(=O)c2ccc(F)cc2Cl)CC1 [Compound 017, 3-[4-(2-chloro-4-fluoro-benzoyl)piperazin-1-yl]-N-cyclohexyl-4-methoxy-N-methyl-benzenesulfonamide] |
| 10 to 50 | COc1ccc(S(=O)(=O)N(C)C2(C)COC2)cc1N1CCN(C(=O)c2ccc(F)cc2Cl)CC1 [Compound 018, 3-[4-(2-chloro-4-fluoro-benzoyl)piperazin-1-yl]-4-methoxy-N-methyl-N-(3-methyloxetan-3-yl)benzenesulfonamide] |
| 10 to 50 | COc1ccc(S(=O)(=O)N(C)Cc2ccccc2)cc1N1CCN(C(=O)c2ccc(F)cc2Cl)CC1 [Compound 019, N-benzyl-3-[4-(2-chloro-4-fluoro-benzoyl)piperazin-1-yl]-4-methoxy-N-methyl-benzenesulfonamide] |
| 1 to 5 | COc1ccc(S(=O)(=O)N(C)Cc2cccc(Cl)c2)cc1N1CCN(C(=O)c2ccc(F)cc2Cl)CC1 [Compound 020, 3-[4-(2-chloro-4-fluoro-benzoyl)piperazin-1-yl]-N-[(3-chlorophenyl)methyl]-4-methoxy-N-methyl-benzenesulfonamide] |
| 5 to 10 | COc1ccc(S(=O)(=O)N(C)Cc2ccc(F)cc2)cc1N1CCN(C(=O)c2ccc(F)cc2Cl)CC1 [Compound 021, 3-[4-(2-chloro-4-fluoro-benzoyl)piperazin-1-yl]-N-[(4-fluorophenyl)methyl]-4-methoxy-N-methyl-benzenesulfonamide] |
| 10 to 50 | COc1ccc(S(=O)(=O)N2CC3CN(C(=O)OC(C)(C)C)CC3C2)cc1N1CCN(C(=O)c2ccc(F)cc2Cl)CC1 (stereo not drawn) [Compound 022, tert-butyl 5-[3-[4-(2-chloro-4-fluoro-benzoyl)piperazin-1-yl]-4-methoxy-phenyl]sulfonyl-1,3,3a,4,6,6a-hexahydropyrrolo[3,4-c]pyrrole-2-carboxylate] |
| < 1 | COc1ccc(S(=O)(=O)N2CCC(=Cc3ccccc3)CC2)cc1N1CCN(C(=O)c2ccc(F)cc2Cl)CC1 [Compound 023, [4-[5-[(4-benzylidene-1-piperidyl)sulfonyl]-2-methoxy-phenyl]piperazin-1-yl]-(2-chloro-4-fluoro-phenyl)methanone] |
| < 1 | COc1ccc(S(=O)(=O)N2CCC(CCc3ccccc3)CC2)cc1N1CCN(C(=O)c2ccc(F)cc2Cl)CC1 [Compound 024, (2-chloro-4-fluoro-phenyl)-[4-[2-methoxy-5-[[4-(2-phenylethyl)-1-piperidyl]sulfonyl]phenyl]piperazin-1-yl]methanone] |
| < 1 | COc1ccc(S(=O)(=O)N2CCC(c3ccccc3)CC2)cc1N1CCN(C(=O)c2ccc(F)cc2Cl)CC1 [Compound 025, (2-chloro-4-fluoro-phenyl)-[4-[2-methoxy-5-[(4-phenyl-1-piperidyl)sulfonyl]phenyl]piperazin-1-yl]methanone] |
| 1 to 5 | COc1ccc(S(=O)(=O)N2CCCC(c3ccccc3)C2)cc1N1CCN(C(=O)c2ccc(F)cc2Cl)CC1 (stereo not drawn) [Compound 026, (2-chloro-4-fluoro-phenyl)-[4-[2-methoxy-5-[[3-phenyl-1-piperidyl]sulfonyl]phenyl]piperazin-1-yl]methanone] |
| 1 to 5 | COc1ccc(S(=O)(=O)N2CCCC(Cc3ccccc3)C2)cc1N1CCN(C(=O)c2ccc(F)cc2Cl)CC1 (stereo not drawn) [Compound 027, (2-chloro-4-fluoro-phenyl)-[4-[2-methoxy-5-[[3-benzyl-1-piperidyl]sulfonyl]phenyl]piperazin-1-yl]methanone] |
| 1 to 5 | COc1ccc(S(=O)(=O)N2CCC(c3ccccc3)C2)cc1N1CCN(C(=O)c2ccc(F)cc2Cl)CC1 (stereo not drawn) [Compound 028, (2-chloro-4-fluoro-phenyl)-[4-[2-methoxy-5-[3-phenylpyrrolidin-1-yl]sulfonyl-phenyl]piperazin-1-yl]methanone] |
| 5 to 10 | COc1ccc(S(=O)(=O)N2CCC(Cc3ccccc3)C2)cc1N1CCN(C(=O)c2ccc(F)cc2Cl)CC1 (stereo not drawn) [Compound 029, (2-chloro-4-fluoro-phenyl)-[4-[2-methoxy-5-[3-benzylpyrrolidin-1-yl]sulfonyl-phenyl]piperazin-1-yl]methanone] |
| 1 to 5 | CCCN(C)S(=O)(=O)c1ccc(OC)c(N2CCN(C(=O)c3ccc(F)cc3Cl)CC2)c1 [Compound 030, 3-[4-(2-chloro-4-fluoro-benzoyl)piperazin-1-yl]-4-methoxy-N-methyl-N-propyl-benzenesulfonamide] |
| 1 to 5 | COc1ccc(S(=O)(=O)N2CCC(C(F)(F)F)CC2)cc1N1CCN(C(=O)c2ccc(F)cc2Cl)CC1 [Compound 031, (2-chloro-4-fluoro-phenyl)-[4-[2-methoxy-5-[[4-(trifluoromethyl)-1-piperidyl]sulfonyl]phenyl]piperazin-1-yl]methanone] |
| 1 to 5 | COc1ccc(S(=O)(=O)NC(C)(C)C)cc1N1CCN(C(=O)c2ccc(F)cc2Cl)CC1 [Compound 032, N-tert-butyl-3-[4-(2-chloro-4-fluoro-benzoyl)piperazin-1-yl]-4-methoxy-benzenesulfonamide] |
| 5 to 10 | COc1ccc(S(=O)(=O)N(C)C(C)(C)C)cc1N1CCN(C(=O)c2ccc(F)cc2Cl)CC1 [Compound 033, N-tert-butyl-3-[4-(2-chloro-4-fluoro-benzoyl)piperazin-1-yl]-4-methoxy-N-methyl-benzenesulfonamide] |
| 5 to 10 | COc1ccc(S(=O)(=O)NC2C3CC4CC(C3)CC2C4)cc1N1CCN(C(=O)c2ccc(F)cc2Cl)CC1 (stereo not drawn) [Compound 034, N-(2-adamantyl)-3-[4-(2-chloro-4-fluoro-benzoyl)piperazin-1-yl]-4-methoxy-benzenesulfonamide] |
| 1 to 5 | COc1ccc(S(=O)(=O)NC2(C)CCCCC2)cc1N1CCN(C(=O)c2ccc(F)cc2Cl)CC1 [Compound 035, 3-[4-(2-chloro-4-fluoro-benzoyl)piperazin-1-yl]-4-methoxy-N-(1-methylcyclohexyl)benzenesulfonamide] |
| 10 to 50 | COc1ccc(S(=O)(=O)N2CC3CCC2C3)cc1N1CCN(C(=O)c2ccc(F)cc2Cl)CC1 (stereo not drawn) [Compound 036, (2-chloro-4-fluoro-phenyl)-[4-[2-methoxy-5-[[2-azabicyclo[2.2.1]heptan-2-yl]sulfonyl]phenyl]piperazin-1-yl]methanone] |
| 10 to 50 | COc1ccc(S(=O)(=O)N(C)CCCC(F)(F)F)cc1N1CCN(C(=O)c2ccc(F)cc2Cl)CC1 [Compound 037, 3-[4-(2-chloro-4-fluoro-benzoyl)piperazin-1-yl]-4-methoxy-N-methyl-N-(4,4,4-trifluorobutyl)benzenesulfonamide] |
| 1 to 5 | COc1ccc(S(=O)(=O)N2CCCC(OCc3ccccc3)C2)cc1N1CCN(C(=O)c2ccc(F)cc2Cl)CC1 (stereo not drawn) [Compound 038, (2-chloro-4-fluoro-phenyl)-[4-[2-methoxy-5-[[3-benzyloxy-1-piperidyl]sulfonyl]phenyl]piperazin-1-yl]methanone] |
| 1 to 5 | COc1ccc(S(=O)(=O)N2CCC(OCc3ccccc3)C2)cc1N1CCN(C(=O)c2ccc(F)cc2Cl)CC1 (stereo not drawn) [Compound 039, (2-chloro-4-fluoro-phenyl)-[4-[2-methoxy-5-[3-benzyloxypyrrolidin-1-yl]sulfonyl-phenyl]piperazin-1-yl]methanone] |
| 10 to 50 | COc1ccc(S(=O)(=O)N2CC3CN(Cc4ccccc4)CC3C2)cc1N1CCN(C(=O)c2ccc(F)cc2Cl)CC1 (stereo not drawn) [Compound 040, [4-[5-[[2-benzyl-1,3,3a,4,6,6a-hexahydropyrrolo[3,4-c]pyrrol-5-yl]sulfonyl]-2-methoxy-phenyl]piperazin-1-yl]-(2-chloro-4-fluoro-phenyl)methanone] |
